Source: patent US9775902B2, “Compounds and methods for treatment of stroke” (FIBROGEN, INC, priority 2006, dated 2017)

Legend:
[1] = system: erythropoietin (EPO); assay: EPO expression in Hep3B cells (QUANTIKINE immunoassay of conditioned media); assay type: cell-based, Human; details: for Fold Increase Over Control: EPO, vs 1% DMSO control; for EPO: conditioned media after overnight incubation with compound
Protocol: The effect of compounds of the present invention on expression of cytoprotective and neuroprotective factors in cells was evaluated as follows. Human cells derived from hepatocarcinoma (Hep3B) tissue (see, e.g., American Type Culture Collection, Manassas Va.) were seeded into 35 mm culture dishes and grown at 37° C., 20% O2, 5% CO2 in Minimal Essential Medium (MEM), Earle's balanced salt solution (Mediatech Inc., Herndon Va.), 2 mM L-glutamine, 0.1 mM non-essential amino acids, 1 mM sodium pyruvate, and 10% FBS. When cell layers reached confluence, the media was replaced with OPTI-MEM media (Invitrogen Life Technologies, Carlsbad Calif.) and cell layers were incubated for approximately 24 hours in 20% O2, 5% CO2 at 37° C. Various compounds of the present invention or 1% DMSO (negative control) were then added to existing media and incubation was continued overnight.
Following incubation, the conditioned media was collected from cell cultures and analyzed for erythropoietin (EPO) expression using a QUANTIKINE immunoassay (R&D Systems, Inc., Minneapolis Minn.) according to the manufacturer's instructions.

[2] = system: VEGF; assay: Plasma VEGF in mice after intravenous injection; assay type: in vivo, Swiss Webster mice; details: mouse plasma, 20 mg/kg i.v., four hours after injection; for fold induction at 20 mg/kg: iv, 4 h, read-out: VEGF Fold Increase
Protocol: (§1) The effect of compounds of the present invention on expression of cytoprotective and neuroprotective factors in vivo was evaluated as follows. In one series of experiments, male Swiss Webster mice (29-34 g) were administered various compounds of the present invention via intravenous injection into the caudal tail vein. Animals treated by intravenous injection received a 6 ml/kg volume of either 5% Dextrose with an equimolar amount of NaOH or Meglumine (vehicle control) or 20 mg/kg of a compound of the present invention in 5% dextrose with an equimolar amount of NaOH or Meglumine. Four hours after injection, the animals were anesthetized and exsanguinated. Plasma samples were collected in EDTA and heparin coated microtainer tubes. Plasma samples were assayed for erythropoietin and VEGF using commercially-available ELISA kits purchased from R & D Systems (Minneapolis Minn.).

[3] = system: erythropoietin (EPO); assay: EPO expression in Kelly neuroblastoma cells; assay type: cell-based; details: for EPO: conditioned media after overnight incubation
Protocol: (§2) The effect of compounds of the present invention on expression of cytoprotective and neuroprotective factors in neuroblastoma cells was evaluated as follows. Kelly neuroblastoma cells (see, e.g., DSMZ, cat# ACC-355, Braunschweig Germany) were treated with various compounds of the present invention or 1% DMSO (negative control). Following an overnight incubation, the conditioned media was collected from cell cultures and analyzed for erythropoietin (EPO) and vascular endothelial growth factor (VEGF) expression using a QUANTIKINE immunoassay (R&D Systems, Inc., Minneapolis Minn.) according to the manufacturer's instructions.

[4] = system: vascular endothelial growth factor (VEGF); assay: VEGF expression in Kelly neuroblastoma cells; assay type: cell-based; details: for VEGF: conditioned media after overnight incubation
Protocol: as §2

[5] = system: erythropoietin; assay: Plasma EPO in mice after intravenous injection; assay type: in vivo, Swiss Webster mice; details: mouse plasma, 20 mg/kg i.v., four hours after injection; for fold induction at 20 mg/kg: iv, 4 h, read-out: EPO Fold Increase; for EPO: mouse EPO ELISA kit (**)
Protocol: as §1

| Structure (SMILES) | Fold Increase Over Control [1] | EPO [1] | fold induction at 20 mg/kg [2] | VEGF [2] | EPO Fold Increase [3] | EPO [3] | VEGF Fold Increase [4] | VEGF [4] | fold induction at 20 mg/kg [5] | EPO [5] |
| --- | --- | --- | --- | --- | --- | --- | --- | --- | --- | --- |
| O=C(O)CNC(=O)c1nc(Cl)c2ccccc2c1O [Compound A, [(1-Chloro-4-hydroxy-isoquinoline-3-carbonyl)-amino]-acetic acid] | 13.6 | 18.3 mIU/ml |  |  |  |  |  |  |  |  |
| O=C(O)CNC(=O)c1nc(Br)c2cc(Br)sc2c1O [Compound AD, [(2,4-Dibromo-7-hydroxy-thieno[3,2-c]pyridine-6-carbonyl)-amino]-acetic acid] | 6.5 | 34.9 mIU/ml | 2.54 | 66 pg/mL | 7.3 | 138.2 mIU/ml | 3.5 | 5123.0 pg/mL | 27.4 | 1997 pg/mL |
| O=C(O)CNC(=O)c1ncc2cc(Oc3ccccc3)sc2c1O [Compound AG, [(7-Hydroxy-2-phenoxy-thieno[3,2-c]pyridine-6-carbonyl)-amino]-acetic acid] | 8.5 | 27.3 mIU/ml | 1.76 | 51 pg/mL | 14.44 | 273 mIU/ml | 5.9 | 8670 pg/mL | 1.91 | 303 pg/mL |
| N#Cc1nc(C(=O)NCC(=O)O)c(O)c2sccc12 [Compound AH, [(4-Cyano-7-hydroxy-thieno[3,2-c]pyridine-6-carbonyl)-amino]-acetic acid] | 7.1 | 13.4 mIU/ml | 1.76 | 44 pg/mL | 11.95 | 225.8 mIU/ml | 4.5 | 6590 pg/mL | 11.6 | 1242 pg/mL |
| O=C(O)CNC(=O)c1nc(-c2ccoc2)c2ccsc2c1O [Compound AI, [(4-Furan-3-yl-7-hydroxy-thieno[3,2-c]pyridine-6-carbonyl)-amino]-acetic acid] | 6.1 | 7.9 mIU/ml | 0.91 | 20 pg/mL | 17.02 | 321.6 mIU/ml | 4.8 | 7003 pg/mL | 1.96 | 221 pg/mL |
| O=C(O)CNC(=O)c1ncc2c(-c3ccc(F)cc3)c(-c3ccc(F)cc3)sc2c1O [Compound AJ, {[2,3-Bis-(4-fluoro-phenyl)-7-hydroxy-thieno[3,2-c]pyridine-6-carbonyl]-amino}-acetic acid] | 42.8 | 62.9 mIU/ml | 1.16 | 29 pg/mL |  |  | 3.0 | 4102 pg/mL | 2.53 | 271 pg/mL |
| COc1cccc(Oc2cccc3c(O)c(C(=O)NCC(=O)O)nc(C#N)c23)c1 [Compound AP, {[1-Cyano-4-hydroxy-8-(3-methoxy-phenoxy)-isoquinoline-3-carbonyl]-amino}-acetic acid] | 17.2 | 53.4 mIU/ml | 0.43 | 27 pg/mL | 1.44 | 27.2 mIU/ml | 2.2 | 3266 pg/mL | 20.1 | 3595 pg/mL |
| Cc1nc2ccc(Oc3ccc4c(C#N)nc(C(=O)NCC(=O)O)c(O)c4c3)cc2o1 [Compound AQ, {[1-Cyano-4-hydroxy-6-(2-methyl-benzooxazol-6-yloxy)-isoquinoline-3-carbonyl]-amino}-acetic acid] | 16.5 | 32.9 mIU/ml | 1.69 | 59 pg/mL | 4.34 | 82 mIU/ml | 2.6 | 3795 pg/mL | 23.8 | 11464 pg/mL |
| N#Cc1nc(C(=O)NCC(=O)O)c(O)c2ccc(Cc3ccccc3)cc12 [Compound AR, [(7-Benzyl-1-cyano-4-hydroxy-isoquinoline-3-carbonyl)-amino]-acetic acid] | 21.8 | 82.7 mIU/ml | 0.83 | 29 pg/mL | 32.17 | 842.9 mIU/ml | 10.8 | 14745 pg/mL | 22.8 | 11000 pg/mL |
| O=C(O)CNC(=O)c1nc2cc(Cl)ccc2c(-c2cccc(C(F)(F)F)c2)c1O [Compound AU, {[7-Chloro-3-hydroxy-4-(3-trifluoromethyl-phenyl)-quinoline-2-carbonyl]-amino}-acetic acid] | 7.1 | 19.2 mIU/ml |  |  | 4.16 | 109.1 mIU/ml | 5.1 | 6877 pg/mL |  |  |
| O=C(O)CNC(=O)c1nc2cc(Cl)ccc2cc1O [Compound B, [(7-Chloro-3-hydroxy-quinoline-2-carbonyl)-amino]-acetic acid] | 9.8 | 14.2 mIU/ml |  |  |  |  |  |  |  |  |
| O=C(O)CNC(=O)c1nc2ccc(Oc3ccccc3)cc2cc1O [Compound C, [(3-Hydroxy-6-phenoxy-quinoline-2-carbonyl)-amino]-acetic acid] | 2.2 | 241.4 mIU/ml |  |  | 3.5 | 21.8 mIU/ml | 9.1 | 1445.7 pg/mL |  |  |
| Cc1cccc2c(Cl)nc(C(=O)NCC(=O)O)c(O)c12 [Compound D, [(1-Chloro-4-hydroxy-5-methyl-isoquinoline-3-carbonyl)-amino]-acetic acid] | 2.7 | 205.7 mIU/ml |  |  |  |  |  |  |  |  |
| COc1ccc(Oc2ccc3c(Cl)nc(C(=O)NCC(=O)O)c(O)c3c2)cc1 [Compound H, {[1-Chloro-4-hydroxy-6-(4-methoxy-phenoxy)-isoquinoline-3-carbonyl]-amino}-acetic acid] | 5.4 | 84.0 mIU/ml |  |  |  |  |  |  |  |  |
| Cc1nc(C(=O)NCC(=O)O)c(O)c2ccc(Oc3ccccc3)cc12 [Compound J, [(4-Hydroxy-1-methyl-7-phenoxy-isoquinoline-3-carbonyl)-amino]-acetic acid] |  | 120.0 mIU/ml |  |  |  |  |  |  |  |  |
| Cc1nc(C(=O)NCC(=O)O)c(OCc2ccccc2)c2ccc(Oc3ccccc3)cc12 [Compound K, [(4-Benzyloxy-1-methyl-7-phenoxy-isoquinoline-3-carbonyl)-amino]-acetic acid] | 1.8 | 57.4 mIU/ml |  |  |  |  |  |  |  |  |
| O=C(O)CNC(=O)c1nc(Sc2ccc(Cl)cc2)c2ccccc2c1O [Compound U, {[1-(4-Chloro-phenylsulfanyl)-4-hydroxy-isoquinoline-3-carbonyl]-amino}-acetic acid] |  |  |  |  | 1.4 | 8.9 mIU/ml | 9.7 | 1526.0 pg/mL |  |  |
| O=C(O)CNC(=O)c1ncc2cc(SC3CCCCC3)ccc2c1O [Compound V, [(7-Cyclohexylsulfanyl-4-hydroxy-isoquinoline-3-carbonyl)-amino]-acetic acid] |  |  |  |  | 3.9 | 24.2 mIU/ml | 13.5 | 2132.0 pg/mL |  |  |
| N#Cc1nc(C(=O)NCC(=O)O)c(O)c2cccc(Oc3ccccc3)c12 [Compound W, [(1-Cyano-4-hydroxy-8-phenoxy-isoquinoline-3-carbonyl)-amino]-acetic acid] |  |  | 1.38 | 40 pg/mL | 11.35 | 214.6 mIU/ml | 5.0 | 1846 pg/mL | 45.6 | 725.4 pg/mL |
